Experimental data reported in patent publication US20230022724A1, “NOVEL IMIDAZOPYRAZINE DERIVATIVES” (Hoffmann-La Roche Inc., priority 2018, published 2023).
Counter-ions that a name gives are not always drawn.

The molecules below were run on Acinetobacter baumannii ATCC17978 (assay: Antimicrobial susceptibility testing: 90% growth inhibitory concentration (IC90) determination). Settings: 90% growth inhibitory concentration, Acinetobacter baumannii ATCC17978, Iso-Sensitest broth, OD 600 nm over 16 h; read-out: ATCC17978 IC90.
Assay type: cell-based
How it was run: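 Compounds in twofold series (e.g. 50 to 0.097 μM final) in Iso-Sensitest broth, inoculated at ~5×10^5 CFU/ml, incubated at 35±2° C. OD600 was read every 20 minutes for 16 h. IC90 was derived from growth inhibition during logarithmic phase.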

Row | SMILES | IC90 [nM]
1 | N#CCOc1ccc(-c2cnc3c(Nc4ccc(C(=O)N5CCC(C(=O)OCC6CNCCN6)CC5)c(Cl)c4)nccn23)c(F)c1F (centres unmarked) [Example 83, piperazin-2-ylmethyl 1-[2-chloro-4-[[3-[4-(cyanomethoxy)-2,3-difluorophenyl]imidazo[1,2-a]pyrazin-8-yl]amino]benzoyl]piperidine-4-carboxylate;2,2,2-trifluoroacetic acid] | 140
2 | CN(C)CCN1CCN(C(=O)c2ccc(Nc3nccn4c(-c5ccc(OCC#N)c(F)c5F)cnc34)cc2Cl)CC1 [Example 84, 2-[4-[8-[3-chloro-4-[4-[2-(dimethylamino)ethyl]piperazine-1-carbonyl]anilino]imidazo[1,2-a]pyrazin-3-yl]-2,3-difluorophenoxy]acetonitrile; 2,2,2-trifluoroacetic acid] | 110

Same assay, conditions: Acinetobacter baumannii, ATCC17978, 16 h, 90% growth inhibitory concentration, Acinetobacter baumannii ATCC17978, Iso-Sensitest broth, OD 600 nm over 16 h; read-out: ATCC17978 IC90

Row | SMILES | IC90 [nM]
3 | N#CCOc1ccc(-c2cnc3c(Nc4ccc(C(=O)N5CCN(CCN6CCC(C(N)=O)C6)CC5)c(Cl)c4)nccn23)c(F)c1F (centres unmarked) [Example 89] | 42
4 | CNCCN1CCN(C(=O)c2ccc(Nc3nccn4c(-c5ccc(OCC#N)c(F)c5F)cnc34)cc2Cl)CC1 [Example 91, 2-[4-[8-[3-chloro-4-[4-[2-(methylamino)ethyl]piperazine-1-carbonyl]anilino]imidazo[1,2-a]pyrazin-3-yl]-2,3-difluorophenoxy]acetonitrile; 2,2,2-trifluoroacetic acid] | 49
5 | N#CCOc1ccc(-c2cnc3c(Nc4ccc(C(=O)N5CCN(CCN6CC(C(N)=O)C6)CC5)c(Cl)c4)nccn23)c(F)c1F [Example 94, 1-[2-[4-[2-chloro-4-[[3-[4-(cyanomethoxy)-2,3-difluorophenyl]imidazo[1,2-a]pyrazin-8-yl]amino]benzoyl]piperazin-1-yl]ethyl]azetidine-3-carboxamide;2,2,2-trifluoroacetic acid] | 54
6 | N#CCOc1ccc(-c2cnc3c(Nc4ccc(C(=O)N5CCN(CCN6CCC[C@H]6C(=O)O)CC5)c(Cl)c4)nccn23)c(F)c1F [Example 104, (2-(4-(2-chloro-4-((3-(4-(cyanomethoxy)-2,3-difluorophenyl)imidazo[1,2-a]pyrazin-8-yl)amino)benzoyl)piperazin-1-yl)ethyl)proline trifluoroacetate] | 630
7 | N#CCOc1ccc(-c2cnc3c(Nc4ccc(C(=O)N5CCN(CCN6CC(c7nnn[nH]7)C6)CC5)c(Cl)c4)nccn23)c(F)c1F [Example 105, 2-(4-(8-((4-(4-(2-(3-(2H-tetrazol-5-yl)azetidin-1-yl)ethyl)piperazine-1-carbonyl)-3-chlorophenyl)amino)imidazo [1,2-a]pyrazin-3-yl)-2,3-difluorophenoxy)acetonitrile trifluoroacetate] | 360

Same assay, conditions: Acinetobacter baumannii, ATCC17978, 16 h, read-out: ATCC17978 IC90

Row | SMILES | IC90 [nM]
8 | N#CCOc1ccc(-c2cnc3c(Nc4ccc(C(=O)N5CCC(C(=O)N6CCN[C@@H](CO)C6)CC5)c(Cl)c4)nccn23)c(F)c1F [Example 85, 2-[4-[8-[3-chloro-4-[4-[(3R)-3-(hydroxymethyl)piperazine-1-carbonyl]piperidine-1-carbonyl]anilino]imidazo[1,2-a]pyrazin-3-yl]-2,3-difluorophenoxy]acetonitrile; formic acid] | 46
9 | N#CCOc1ccc(-c2cnc3c(Nc4ccc(C(=O)N5CCC(C(=O)N6CCN[C@@H](CO)C6)CC5)c(Cl)c4)nccn23)c(Cl)c1F [Example 86, 2-[3-chloro-4-[8-[3-chloro-4-[4-[(3R)-3-(hydroxymethyl)piperazine-1-carbonyl]piperidine-1-carbonyl]anilino]imidazo[1,2-a]pyrazin-3-yl]-2-fluorophenoxy]acetonitrile; formic acid] | 49
10 | N#CCOc1ccc(-c2cnc3c(Nc4ccc(C(=O)N5CCC(C(=O)N6CCN[C@H](CO)C6)CC5)c(Cl)c4)nccn23)c(F)c1F [Example 87, 2-[4-[8-[3-chloro-4-[4-[(3S)-3-(hydroxymethyl)piperazine-1-carbonyl]piperidine-1-carbonyl]anilino]imidazo[1,2-a]pyrazin-3-yl]-2,3-difluorophenoxy]acetonitrile; formic acid] | 52
11 | N#CCOc1ccc(-c2cnc3c(Nc4ccc(C(=O)N5CCC(C(=O)N6CCN[C@H](CO)C6)CC5)c(Cl)c4)nccn23)c(Cl)c1F [Example 88, 2-[3-chloro-4-[8-[3-chloro-4-[4-[(3S)-3-(hydroxymethyl)piperazine-1-carbonyl]piperidine-1-carbonyl]anilino]imidazo[1,2-a]pyrazin-3-yl]-2-fluorophenoxy]acetonitrile; formic acid] | 90
12 | N#CCOc1ccc(-c2cnc3c(Nc4ccc(C(=O)N5CCN(CCN6CCC(CO)C6)CC5)c(Cl)c4)nccn23)c(F)c1F (centres unmarked) [Example 90, 2-[4-[8-[3-chloro-4-[4-[2-[3-(hydroxymethyl)pyrrolidin-1-yl]ethyl]piperazine-1-carbonyl]anilino]imidazo[1,2-a]pyrazin-3-yl]-2,3-difluorophenoxy]acetonitrile; 2,2,2-trifluoroacetic acid] | 43
13 | N#CCOc1ccc(-c2cnc3c(Nc4ccc(C(=O)N5CCN(CCN6CC(CO)C6)CC5)c(Cl)c4)nccn23)c(F)c1F [Example 92, 2-[4-[8-[3-chloro-4-[4-[2-[3-(hydroxymethyl)azetidin-1-yl]ethyl]piperazine-1-carbonyl]anilino]imidazo[1,2-a]pyrazin-3-yl]-2,3-difluorophenoxy]acetonitrile; 2,2,2-trifluoroacetic acid] | 50
14 | N#CCOc1ccc(-c2cnc3c(Nc4ccc(C(=O)N5CCN(CCN6CCCC6CO)CC5)c(Cl)c4)nccn23)c(F)c1F (centres unmarked) [Example 93, 2-[4-[8-[3-chloro-4-[4-[2-[2-(hydroxymethyl)pyrrolidin-1-yl]ethyl]piperazine-1-carbonyl]anilino]imidazo[1,2-a]pyrazin-3-yl]-2,3-difluorophenoxy]acetonitrile; 2,2,2-trifluoroacetic acid] | 53
15 | N#CCOc1ccc(-c2cnc3c(Nc4ccc(C(=O)N5CCN(CCN6CCC(O)C6)CC5)c(Cl)c4)nccn23)c(F)c1F (centres unmarked) [Example 95, 2-[4-[8-[3-chloro-4-[4-[2-(3-hydroxypyrrolidin-1-yl)ethyl]piperazine-1-carbonyl]anilino]imidazo[1,2-a]pyrazin-3-yl]-2,3-difluorophenoxy]acetonitrile; 2,2,2-trifluoroacetic acid] | 56
16 | N#CCOc1ccc(-c2cnc3c(Nc4ccc(C(=O)N5CCN(CCN6CC(O)C6)CC5)c(Cl)c4)nccn23)c(F)c1F [Example 96, 2-[4-[8-[3-chloro-4-[4-[2-(3-hydroxyazetidin-1-yl)ethyl]piperazine-1-carbonyl]anilino]imidazo[1,2-a]pyrazin-3-yl]-2,3-difluorophenoxy]acetonitrile; 2,2,2-trifluoroacetic acid] | 73
17 | COC1CN(CCN2CCN(C(=O)c3ccc(Nc4nccn5c(-c6ccc(OCC#N)c(F)c6F)cnc45)cc3Cl)CC2)C1 [Example 97, 2-[4-[8-[3-chloro-4-[4-[2-(3-methoxyazetidin-1-yl)ethyl]piperazine-1-carbonyl]anilino]imidazo[1,2-a]pyrazin-3-yl]-2,3-difluorophenoxy]acetonitrile; 2,2,2-trifluoroacetic acid] | 100
18 | CS(=O)(=O)C1CN(CCN2CCN(C(=O)c3ccc(Nc4nccn5c(-c6ccc(OCC#N)c(F)c6F)cnc45)cc3Cl)CC2)C1 [Example 98, 2-[4-[8-[3-chloro-4-[4-[2-(3-methylsulfonylazetidin-1-yl)ethyl]piperazine-1-carbonyl]anilino]imidazo[1,2-a]pyrazin-3-yl]-2,3-difluorophenoxy]acetonitrile; 2,2,2-trifluoroacetic acid] | 140
19 | CN(C)CC1CN(CCN2CCN(C(=O)c3ccc(Nc4nccn5c(-c6ccc(OCC#N)c(F)c6F)cnc45)cc3Cl)CC2)C1 [Example 99, 2-[4-[8-[3-chloro-4-[4-[2-[3-[(dimethylamino)methyl]azetidin-1-yl]ethyl]piperazine-1-carbonyl]anilino]imidazo[1,2-a]pyrazin-3-yl]-2,3-difluorophenoxy]acetonitrile; 2,2,2-trifluoroacetic acid] | 170
20 | CN(C)C1CCN(CCN2CCN(C(=O)c3ccc(Nc4nccn5c(-c6ccc(OCC#N)c(F)c6F)cnc45)cc3Cl)CC2)C1 (centres unmarked) [Example 100, 2-[4-[8-[3-chloro-4-[4-[2-[3-(dimethylamino)pyrrolidin-1-yl]ethyl]piperazine-1-carbonyl]anilino]imidazo[1,2-a]pyrazin-3-yl]-2,3-difluorophenoxy]acetonitrile; 2,2,2-trifluoroacetic acid] | 170
21 | CN(C)C1CCN(CCN2CCN(C(=O)c3ccc(Nc4nccn5c(-c6ccc(OCC#N)c(F)c6F)cnc45)cc3Cl)CC2)CC1 [Example 101, 2-[4-[8-[3-chloro-4-[4-[2-[4-(dimethylamino)piperidin-1-yl]ethyl]piperazine-1-carbonyl]anilino]imidazo[1,2-a]pyrazin-3-yl]-2,3-difluorophenoxy]acetonitrile; 2,2,2-trifluoroacetic acid] | 170
22 | CN(C)C1CN(CCN2CCN(C(=O)c3ccc(Nc4nccn5c(-c6ccc(OCC#N)c(F)c6F)cnc45)cc3Cl)CC2)C1 [Example 102, 2-[4-[8-[3-chloro-4-[4-[2-[3-(dimethylamino)azetidin-1-yl]ethyl]piperazine-1-carbonyl]anilino]imidazo[1,2-a]pyrazin-3-yl]-2,3-difluorophenoxy]acetonitrile; 2,2,2-trifluoroacetic acid] | 170
23 | CS(=O)(=O)C1CCN(CCN2CCN(C(=O)c3ccc(Nc4nccn5c(-c6ccc(OCC#N)c(F)c6F)cnc45)cc3Cl)CC2)C1 (centres unmarked) [Example 103, 2-[4-[8-[3-chloro-4-[4-[2-(3-methylsulfonylpyrrolidin-1-yl)ethyl]piperazine-1-carbonyl]anilino]imidazo[1,2-a]pyrazin-3-yl]-2,3-difluorophenoxy]acetonitrile; 2,2,2-trifluoroacetic acid] | 180
